Entries after “also recorded” stand apart in the source; their conditions may differ. Like-named read-outs stand apart in the source and are kept apart here.
What was measured:
[1] = Example 12 case study: zonisamide added to clonazepam, fluoxetine and lamotrogine, bipolar patient; format: in vivo, human; conditions: zonisamide 100 mg qD added to clonazepam, fluoxetine, lamotrogine; person
Procedure: A person having biopolar disorder, Type I, had been treated for just over year by their psychiatrist using clonazepam 1 mg qHS, fluoxetine 20 mg qd, and lamotrogine 300 mg qD. One particular complaint was that they had “constant thoughts of eating”. Their psychiatrist started them on zonisamide 100 mg qD. […] The dose was continued and despite multiple stressors at home, they continued to do well on the treatment regimen.

[2] = Example 10: co-treatment with zonisamide in rodent model of olanzapine-induced weight gain (body weight, food intake); format: in vivo, Sprague-Dawley rats
Procedure: Female Sprague-Dawley rats, weighing about 235 grams at the start of the experiment were used. They were trained to sham injections, using the zonisamide vehicle for 2 weeks before the study commenced. Under isoflurane anesthesia, Alzet osmotic minipumps (2 ml2) were implanted subcutaneously, between the shoulder blades. The rats were subsequently returned to their home cages after recovery. The minipumps delivered 5 μL per hour for 14 days. […] The animals were housed individually and supplied with standard laboratory chow. Food consumed and animal weights were recorded every days. […] Rats were allowed to recover after pump implantation, and then received twice daily injections of zonisamide 26 mg/kg.

[3] = Example 11: zonisamide started one week after olanzapine pump implantation in rodent model of olanzapine-induced weight gain; format: in vivo, rats
Procedure: Female Sprague-Dawley rats, weighing about 235 grams at the start of the experiment were used. They were trained to sham injections, using the zonisamide vehicle for 2 weeks before the study commenced. Under isoflurane anesthesia, Alzet osmotic minipumps (2 ml2) were implanted subcutaneously, between the shoulder blades. The rats were subsequently returned to their home cages after recovery. The minipumps delivered 5 μL per hour for 14 days. Olanzapine was dissolved in 1.5% lactic acid in dH2O. Zonisamide was dissolved in 10% DMSO, 13.4% EtOH, 20.1% PPG, and […]. Olanzapine dose was 1.75 mg/day via the minipump. The animals were housed individually and supplied with standard laboratory chow. Food consumed and animal weights were recorded every days. There were 5 animals in the control (vehicle) group, 5 animals in the zonisamide only group, 4 animals in the olanzapine only group, and 6 animals in the olanzapine+zonisamide group.
Rats were allowed to recover after pump implantation, and then received twice daily injections of zonisamide 26 mg/kg. Their food intake and body weight were calculated daily for 15 days.
The protocol used was the same as described in Example 12, with the exception that the treatment with zonisamide began one week after implantation of the olanzapine osmotic pumps, and food intake and body weight were calculated daily for 10 days.

[4] = cited from earlier work
[5] = system: Proopiomelanocortin (POMC) neurons; test: Electrophysiology: action current frequency of POMC neurons in brain slices, loose cell attached patch; format: cell-based, POMC-EGFP mice; conditions: for frequency of action currents (activity) of POMC neurons: zonisamide 10 μM, FIG. 1
Procedure: The electrophysiological activity of Proopiomelanocortin (POMC) neurons in brain slices from POMC-EGFP mice was recorded. The POMC neurons in these mice are identified by the expression of green fluorescent protein (EGFP) in these, and only these, cells. The frequency of action potentials in these neurons were recorded using standard electrophysiological techniques. In particular, loose cell attached patch configuration is used to determine action current frequency, whilst minimally disturbing the cells.
The basal activity was recorded, and then olanzapine (100 nM) was added to the tissue bath to determine the effect of olanzapine on the activity of POMC neurons. […] Then the effect of zonisamide on the reduction in activity caused by […] was tested by adding olanzapine plus zonisamide (10 μM) to the bath.

[6] = Example 13 case study: zonisamide in patient with weight gain on paroxetine and risperidone; format: in vivo, human
Procedure: They were therefore started on zonisamide 100 mg, increased to 200 mg. […] The dose was then increased to 300 mg and then to 600 mg.

[7] = Example 14 case study: bupropion and zonisamide added to olanzapine and valproate; format: in vivo, human
Procedure: At this point, zonisamide was added to their medication regimen at 100 mg/day and the dose was increased to 200 mg/day after two weeks.

[8] = Day 1.00, rats, olanzapine 1.75 mg/day minipump, zonisamide 26 mg/kg twice daily
[9] = Day 7.00, rats, zonisamide begun one week after olanzapine pump implantation
[10] = zonisamide added to olanzapine, valproate, bupropion

NS(=O)(=O)Cc1noc2ccccc12 [Zonisamide, zonisamide]
craving for food [1]: significantly reduced their craving for food | weight gain [1]: prevented weight gain | Change in Food Intake Post Pump Implant, Mean [2, 8]: 12.48 | Cumulative Change in Body Weight, Mean [2, 8]: 9.74 | Change in Food Intake Post Pump Implant, Mean ([2]; Day 2.00): 30.10 | Cumulative Change in Body Weight, Mean ([2]; Day 4.00): 20.24 | Change in Food Intake Post Pump Implant, Mean ([2]; Day 5.00): 46.02 | Cumulative Change in Body Weight, Mean ([2]; Day 5.00): 17.60 | Change in Food Intake Post Pump Implant, Mean ([2]; Day 6.00): 58.24 | Cumulative Change in Body Weight, Mean ([2]; Day 6.00): 19.34 | Change in Food Intake Post Pump Implant, Mean ([2]; Day 7.00): 72.10 | Cumulative Change in Body Weight, Mean ([2]; Day 7.00): 20.18 | Change in Food Intake Post Pump Implant, Mean ([2]; Day 8.00): 86.88 | Cumulative Change in Body Weight, Mean ([2]; Day 8.00): 17.32 | Change in Food Intake Post Pump Implant, Mean ([2]; Day 9.00): 104.86 | Cumulative Change in Body Weight, Mean ([2]; Day 9.00): 13.66 | Change in Food Intake Post Pump Implant, Mean ([2]; Day 10.00): 123.66 | Cumulative Change in Body Weight, Mean ([2]; Day 10.00): 14.62 | Change in Food Intake Post Pump Implant, Mean ([2]; Day 11.00): 140.40 | Cumulative Change in Body Weight, Mean ([2]; Day 11.00): 16.46 | Change in Food Intake Post Pump Implant, Mean ([2]; Day 12.00): 160.36 | Cumulative Change in Body Weight, Mean ([2]; Day 12.00): 21.08 | Change in Food Intake Post Pump Implant, Mean ([2]; Day 13.00): 177.70 | Cumulative Change in Body Weight, Mean ([2]; Day 13.00): 24.26 | Change in Food Intake Post Pump Implant, Mean ([2]; Day 14.00): 186.25 | Cumulative Change in Body Weight, Mean ([2]; Day 14.00): 27.52 | Cumulative Change in Body Weight, Mean ([2]; Day 15.00): 25.70 | effect on the weight gain associated with olanzapine ([2]; zonisamide added to concomitant olanzapine treatment, rats): decrease the weight gain associated with olanzapine | Cumulative Change in Body Weiglt Post-Pump Implant, Mean [3, 9]: −1.73 | Cumulative Change in Food Intake Post-Pump Implant, Mean [3, 9]: 13.15 | Cumulative Change in Body Weiglt Post-Pump Implant, Mean ([3]; Day 8.00): −11.38 | Cumulative Change in Food Intake Post-Pump Implant, Mean ([3]; Day 8.00): 18.62 | Cumulative Change in Body Weiglt Post-Pump Implant, Mean ([3]; Day 9.00): −1.28 | Cumulative Change in Food Intake Post-Pump Implant, Mean ([3]; Day 9.00): 46.87 | Cumulative Change in Body Weiglt Post-Pump Implant, Mean ([3]; Day 10.00): 5.8 | Cumulative Change in Food Intake Post-Pump Implant, Mean ([3]; Day 10.00): 101.08 | Cumulative Change in Body Weiglt Post-Pump Implant, Mean ([3]; Day 11.00): 6.37 | Cumulative Change in Food Intake Post-Pump Implant, Mean ([3]; Day 11.00): 116.93 | Cumulative Change in Body Weiglt Post-Pump Implant, Mean ([3]; Day 12.00): 0.86 | Cumulative Change in Food Intake Post-Pump Implant, Mean ([3]; Day 12.00): 126.64 | Cumulative Change in Body Weiglt Post-Pump Implant, Mean ([3]; Day 13.00): −4.79 | Cumulative Change in Food Intake Post-Pump Implant, Mean ([3]; Day 13.00): 133.95 | Cumulative Change in Body Weiglt Post-Pump Implant, Mean ([3]; Day 14.00): −11.79 | Cumulative Change in Food Intake Post-Pump Implant, Mean ([3]; Day 14.00): 141.09 | Cumulative Change in Body Weiglt Post-Pump Implant, Mean ([3]; Day 15.00): −10.3 | Cumulative Change in Food Intake Post-Pump Implant, Mean ([3]; Day 15.00): 153.61 | Cumulative Change in Body Weiglt Post-Pump Implant, Mean ([3]; Day 16.00): −9.37 | Cumulative Change in Food Intake Post-Pump Implant, Mean ([3]; Day 16.00): 167.93 | effect on olanzapine-induced weight gain ([3]; zonisamide one week after implantation of olanzapine pumps, rats): decrease the weight gain associated with olanzapine; also recorded: reversed olanzapine-induced weight gain | weight loss ([4]; patients presenting with primary obesity): significant weight loss | tolerability ([4]; versus placebo treatment): well tolerated | activity of POMC neurons inhibited by olanzapine ([5]; olanzapine plus zonisamide (10 μM) in the bath, FIG. 3): reversed the inhibition of POMC neurons | frequency of action currents (activity) of POMC neurons [5]: reversibly increased the activity of POMC neurons | frequency of action currents (activity) of POMC neurons ([5]; listed as zonisamide): increases the activity of POMC neurons | psychiatric symptoms ([6]; on zonisamide): improved | weight lost ([6]; zonisamide 100 mg, increased to 200 mg, in 3 weeks): 12 pounds | weight ([6]; zonisamide increased to 300 mg and then 600 mg, in 5 months): returned to baseline | weight lost ([7]; zonisamide 100 mg/day, 200 mg/day after two weeks, added to regimen, over the next 4 months): 15 lbs | adverse effects reported [7, 10]: no adverse effects | bipolar disorder symptoms [7, 10]: remained free of bipolar disorder symptoms

CC(NC(C)(C)C)C(=O)c1cccc(Cl)c1 (stereo not shown) [bupropion]
weight loss ([6]; trial of bupropion alone): did not cause significant weight loss | weight lost ([7]; bupropion 150 mg/day added to olanzapine and valproate, after 6 months): 23.6 lbs | adverse effect reported ([7]; bupropion dose raised to 300 mg/day): feeling hyperactive | weight regained ([7]; while continuing bupropion, over the next 10 months): 10.6 lbs

Cc1cc2c(s1)Nc1ccccc1N=C2N1CCN(C)CC1 [Olanzapine, olanzapine]
Change in Food Intake Post Pump Implant, Mean [2, 8]: 16.56 | Cumulative Change in Body Weight, Mean [2, 8]: 7.44 | Change in Food Intake Post Pump Implant, Mean ([2]; Day 2.00): 39.82 | Cumulative Change in Body Weight, Mean ([2]; Day 4.00): 21.04 | Change in Food Intake Post Pump Implant, Mean ([2]; Day 5.00): 62.30 | Cumulative Change in Body Weight, Mean ([2]; Day 5.00): 19.22 | Change in Food Intake Post Pump Implant, Mean ([2]; Day 6.00): 86.14 | Cumulative Change in Body Weight, Mean ([2]; Day 6.00): 20.56 | Change in Food Intake Post Pump Implant, Mean ([2]; Day 7.00): 105.74 | Cumulative Change in Body Weight, Mean ([2]; Day 7.00): 30.88 | Change in Food Intake Post Pump Implant, Mean ([2]; Day 8.00): 119.30 | Cumulative Change in Body Weight, Mean ([2]; Day 8.00): 27.56 | Change in Food Intake Post Pump Implant, Mean ([2]; Day 9.00): 144.98 | Cumulative Change in Body Weight, Mean ([2]; Day 9.00): 32.94 | Change in Food Intake Post Pump Implant, Mean ([2]; Day 10.00): 161.16 | Cumulative Change in Body Weight, Mean ([2]; Day 10.00): 34.98 | Change in Food Intake Post Pump Implant, Mean ([2]; Day 11.00): 180.96 | Cumulative Change in Body Weight, Mean ([2]; Day 11.00): 33.40 | Change in Food Intake Post Pump Implant, Mean ([2]; Day 12.00): 201.42 | Cumulative Change in Body Weight, Mean ([2]; Day 12.00): 40.76 | Change in Food Intake Post Pump Implant, Mean ([2]; Day 13.00): 224.38 | Cumulative Change in Body Weight, Mean ([2]; Day 13.00): 38.84 | Change in Food Intake Post Pump Implant, Mean ([2]; Day 14.00): 241.48 | Cumulative Change in Body Weight, Mean ([2]; Day 14.00): 43.28 | Cumulative Change in Body Weight, Mean ([2]; Day 15.00): 41.64 | Cumulative Change in Body Weiglt Post-Pump Implant, Mean [3, 9]: −0.46 | Cumulative Change in Food Intake Post-Pump Implant, Mean [3, 9]: 13.39 | Cumulative Change in Body Weiglt Post-Pump Implant, Mean ([3]; Day 8.00): −11.55 | Cumulative Change in Food Intake Post-Pump Implant, Mean ([3]; Day 8.00): 18.36 | Cumulative Change in Body Weiglt Post-Pump Implant, Mean ([3]; Day 9.00): 4.28 | Cumulative Change in Food Intake Post-Pump Implant, Mean ([3]; Day 9.00): 57.46 | Cumulative Change in Body Weiglt Post-Pump Implant, Mean ([3]; Day 10.00): 11.88 | Cumulative Change in Food Intake Post-Pump Implant, Mean ([3]; Day 10.00): 124.58 | Cumulative Change in Body Weiglt Post-Pump Implant, Mean ([3]; Day 11.00): 13.48 | Cumulative Change in Food Intake Post-Pump Implant, Mean ([3]; Day 11.00): 145.5 | Cumulative Change in Body Weiglt Post-Pump Implant, Mean ([3]; Day 12.00): 11.8 | Cumulative Change in Food Intake Post-Pump Implant, Mean ([3]; Day 12.00): 163.6 | Cumulative Change in Body Weiglt Post-Pump Implant, Mean ([3]; Day 13.00): 15.55 | Cumulative Change in Food Intake Post-Pump Implant, Mean ([3]; Day 13.00): 181.05 | Cumulative Change in Body Weiglt Post-Pump Implant, Mean ([3]; Day 14.00): 20.4 | Cumulative Change in Food Intake Post-Pump Implant, Mean ([3]; Day 14.00): 200.9 | Cumulative Change in Body Weiglt Post-Pump Implant, Mean ([3]; Day 15.00): 17.98 | Cumulative Change in Food Intake Post-Pump Implant, Mean ([3]; Day 15.00): 218.2 | Cumulative Change in Body Weiglt Post-Pump Implant, Mean ([3]; Day 16.00): 21.22 | Cumulative Change in Food Intake Post-Pump Implant, Mean ([3]; Day 16.00): 236.95

From patent US20070185084A1, “COMPOSITIONS OF AN ANTICONVULSANT AND METHODS OF USING THE SAME FOR REVERSING WEIGHT GAIN” (Orexigen Therapeutics, Inc., priority 2006, published 2007)
